Nine compounds from ChEMBL document CHEMBL1131503, “Design and synthesis of enantiomers of 3,5-dinitro-o-tyrosine: alpha-amino-3-hydroxy-5-methyl-4-isoxazolepropanoic acid (AMPA) receptor antagonists” (J Med Chem, 1998) can be followed below.

This test has as its target Glutamate receptor ionotropic, AMPA (Rattus norvegicus) (UniProt P19491+P19492+P19493+P19490). The test is described as follows: The compound was tested for the % displacement of [3H]AMPA binding to Ionotropic glutamate receptor AMPA in rat brain membranes at a concentration of 100 uM. The class given is cell membranes.
Take `N[C@@H](Cc1cc([N+](=O)[O-])cc([N+](=O)[O-])c1O)C(=O)O`: the Displacement was found to be 78%. The compound `NC(Cc1cc([N+](=O)[O-])cc([N+](=O)[O-])c1O)C(=O)O` (centres undefined) displayed a Displacement of 76%. Turning to `NC(Cc1ccccc1OCC(=O)O)C(=O)O` (centres undefined), the Displacement worked out at 20%. For the compound `N[C@H](Cc1cc([N+](=O)[O-])cc([N+](=O)[O-])c1O)C(=O)O`, the Displacement is 58%. The same measure for `CC(=O)NC(Cc1cc([N+](=O)[O-])cc([N+](=O)[O-])c1O)C(=O)O` (centres undefined): 14%; for `O=[N+]([O-])c1cc2nc(O)c(O)nc2cc1[N+](=O)[O-]`: 99%; for `COc1c(CC(N)C(=O)O)cc([N+](=O)[O-])cc1[N+](=O)[O-]` (centres undefined): 66%. Compound `CC(C)(C)OC(=O)NC(Cc1cc([N+](=O)[O-])cc([N+](=O)[O-])c1O)C(=O)O` (centres undefined) yielded a Displacement of 17%. The same measure for `COc1c(CC(NC(=O)OC(C)(C)C)C(=O)O)cc([N+](=O)[O-])cc1[N+](=O)[O-]` (centres undefined): 26%.
